Measurements as given in ChEMBL document CHEMBL3885861, “Open TG-GATES”.

Species: Rattus norvegicus
Assay: Open TG-GATES - Regimen: Single
Format: toxicity, organism-based, Sprague-Dawley
Parameters: regimen Single, gender Male, age 6 weeks
Conditions: in vivo, po, 0 mg/kg, route gavage, dose level Control; for APTT / Bas / Eos / Fbg / Hb / Ht / Lym / MCH / MCHC / MCV / Mono / Neu / PT / Plat / RBC / Ret / WBC: tissue Blood; for A/G / ALP / ALT / AST / BUN / CRE / Ca / Cl / DBIL / GLC / IP / K / LDH / Na / PL / RALB / TBIL / TC / TG / TP / gamma-GTP: tissue Plasma

`Cn1cc[nH]c1=S` [METHIMAZOLE] gave a TERMINAL_BW (3 h) of 207.3 g, an APTT (3 h) of 20.3 s and a Bas (3 h) of 0%. For the same compound, the Eos (3 h) was 0.4%, the Fbg (3 h) was 292.4 mg/dL and the Hb (3 h) was 13.6 g/dL. For the same compound, the Ht (3 h) was 38.8%, the Lym (3 h) was 82.4% and the MCH (3 h) was 22.3 pg. For the same compound, the MCHC (3 h) was 35.1%, the MCV (3 h) was 63.5 fL and the Mono (3 h) was 1.8%. For the same compound, the Neu (3 h) was 14.6%, the PT (3 h) was 15.8 s and the Plat (3 h) was 122.5 x10_4/uL. It also gave an RBC (3 h) of 612 x10_4/ul, a Ret (3 h) of 8.6% and a WBC (3 h) of 96.4 x10_2/uL. For the same compound, the A/G (3 h) was 1.3, the ALP (3 h) was 1879.2 IU/L and the ALT (3 h) was 44.4 IU/L. For the same compound, the AST (3 h) was 75.8 IU/L, the BUN (3 h) was 14.4 mg/dL and the CRE (3 h) was 0.2 mg/dL. The Ca (3 h) was 10.6 mg/dL, the Cl (3 h) was 106.8 meq/L and the DBIL (3 h) was 0.002 mg/dL. The GLC (3 h) was 190.6 mg/dL, the IP (3 h) was 8.2 mg/dL and the K (3 h) was 4.1 meq/L. It also gave an LDH (3 h) of 186.8 IU/L, a Na (3 h) of 142 meq/L and a PL (3 h) of 143.6 mg/dL. The RALB (3 h) was 3 g/dL, the TBIL (3 h) was 0.02 mg/dL and the TC (3 h) was 84 mg/dL. It also gave a TG (3 h) of 55.6 mg/dL, a TP (3 h) of 5.4 g/dL and a gamma-GTP (3 h) of 1 IU/L. For the same compound, the TERMINAL_BW (6 h) was 210.9 g, the APTT (6 h) was 21.9 s and the Bas (6 h) was 0%. The Eos (6 h) was 0.8%, the Fbg (6 h) was 287.6 mg/dL and the Hb (6 h) was 13.5 g/dL. The Ht (6 h) was 38.4%, the Lym (6 h) was 82% and the MCH (6 h) was 22.3 pg. It also gave an MCHC (6 h) of 35.1%, an MCV (6 h) of 63.6 fL and a Mono (6 h) of 2.6%. The Neu (6 h) was 13.8%, the PT (6 h) was 16 s and the Plat (6 h) was 117.7 x10_4/uL. The RBC (6 h) was 605 x10_4/ul, the Ret (6 h) was 9.1% and the WBC (6 h) was 103.6 x10_2/uL. For the same compound, the A/G (6 h) was 1.2, the ALP (6 h) was 1447.2 IU/L and the ALT (6 h) was 47.2 IU/L. For the same compound, the AST (6 h) was 77.4 IU/L, the BUN (6 h) was 10.8 mg/dL and the CRE (6 h) was 0.1 mg/dL. The Ca (6 h) was 10.6 mg/dL, the Cl (6 h) was 106.4 meq/L and the DBIL (6 h) was 0 mg/dL. For the same compound, the GLC (6 h) was 185 mg/dL, the IP (6 h) was 9.7 mg/dL and the K (6 h) was 4.4 meq/L. It also gave an LDH (6 h) of 228 IU/L, a Na (6 h) of 141.8 meq/L and a PL (6 h) of 141.6 mg/dL. For the same compound, the RALB (6 h) was 3 g/dL, the TBIL (6 h) was 0.022 mg/dL and the TC (6 h) was 79.4 mg/dL. For the same compound, the TG (6 h) was 54.2 mg/dL, the TP (6 h) was 5.4 g/dL and the gamma-GTP (6 h) was 1 IU/L. For the same compound, the TERMINAL_BW (9 h) was 203.8 g, the APTT (9 h) was 21.7 s and the Bas (9 h) was 0%. For the same compound, the Eos (9 h) was 0.8%, the Fbg (9 h) was 302.2 mg/dL and the Hb (9 h) was 13.4 g/dL. For the same compound, the Ht (9 h) was 38.7%, the Lym (9 h) was 81.6% and the MCH (9 h) was 22 pg. The MCHC (9 h) was 34.7%, the MCV (9 h) was 63.4 fL and the Mono (9 h) was 2.2%. It also gave a Neu (9 h) of 14.8%, a PT (9 h) of 16 s and a Plat (9 h) of 119.6 x10_4/uL. The RBC (9 h) was 610 x10_4/ul, the Ret (9 h) was 7.7% and the WBC (9 h) was 102.4 x10_2/uL. It also gave an A/G (9 h) of 1.1, an ALP (9 h) of 1453.2 IU/L and an ALT (9 h) of 40.2 IU/L. The AST (9 h) was 68.8 IU/L, the BUN (9 h) was 11.4 mg/dL and the CRE (9 h) was 0.1 mg/dL. It also gave a Ca (9 h) of 10.4 mg/dL, a Cl (9 h) of 106 meq/L and a DBIL (9 h) of 0.002 mg/dL. It also gave a GLC (9 h) of 184.2 mg/dL, an IP (9 h) of 9.8 mg/dL and a K (9 h) of 4.1 meq/L. It also gave an LDH (9 h) of 181.8 IU/L, a Na (9 h) of 141.6 meq/L and a PL (9 h) of 136.8 mg/dL. The RALB (9 h) was 2.9 g/dL, the TBIL (9 h) was 0.014 mg/dL and the TC (9 h) was 73 mg/dL. The TG (9 h) was 75.6 mg/dL, the TP (9 h) was 5.5 g/dL and the gamma-GTP (9 h) was 1.2 IU/L. It also gave a TERMINAL_BW (24 h) of 225.5 g, an APTT (24 h) of 21.4 s and a Bas (24 h) of 0%. For the same compound, the Eos (24 h) was 1%, the Fbg (24 h) was 315 mg/dL and the Hb (24 h) was 13.7 g/dL. For the same compound, the Ht (24 h) was 38.8%, the Lym (24 h) was 78% and the MCH (24 h) was 22.1 pg. It also gave an MCHC (24 h) of 35.3%, an MCV (24 h) of 62.5 fL and a Mono (24 h) of 2.8%. The Neu (24 h) was 17.4%, the PT (24 h) was 15.7 s and the Plat (24 h) was 124.5 x10_4/uL. For the same compound, the RBC (24 h) was 621.4 x10_4/ul, the Ret (24 h) was 8.2% and the WBC (24 h) was 97.4 x10_2/uL. The A/G (24 h) was 1.1, the ALP (24 h) was 1887.6 IU/L and the ALT (24 h) was 42.8 IU/L. For the same compound, the AST (24 h) was 69 IU/L, the BUN (24 h) was 15.8 mg/dL and the CRE (24 h) was 0.1 mg/dL. For the same compound, the Ca (24 h) was 11 mg/dL, the Cl (24 h) was 104.6 meq/L and the DBIL (24 h) was 0 mg/dL. For the same compound, the GLC (24 h) was 180.6 mg/dL, the IP (24 h) was 7.6 mg/dL and the K (24 h) was 4.2 meq/L. It also gave an LDH (24 h) of 183.2 IU/L, a Na (24 h) of 142.4 meq/L and a PL (24 h) of 156.6 mg/dL. For the same compound, the RALB (24 h) was 2.9 g/dL, the TBIL (24 h) was 0.004 mg/dL and the TC (24 h) was 77.8 mg/dL. The TG (24 h) was 120.4 mg/dL, the TP (24 h) was 5.6 g/dL and the gamma-GTP (24 h) was 1 IU/L.
